This is an account of results in patent US20090221518A1, “Compositions and Methods for Treatment of Exudative Serous Effusion” (Anaborex, Inc., priority 2007, published 2009).

Marks after values point to notes of the source that are not given here.

Data set [1] relates to Vascular Endothelial Growth Factor (VEGF). The data set is described as follows: VEGF concentration in plasma and ascites (Quantikine Rat VEGF Immunoassay), rat AH model. The data set is classed as in vivo, female Wistar rats. The note with it: Experiment 3; for Ascites [VEGF] Mean: ascites fluid; for Ascites VEGF pg/rat Mean: concentration times ascites volume. How it is done: (§1) Following the method of Busquets et al., female Wistar rats were inoculated (Day 0) intraperitoneally (ip) with 2×10^7 cells/animal of Yoshida AH-130 ascites hepatoma (AH) cells. Control animals were inoculated with an equivalent amount of sterile saline solution. […] The roxithromycin dosing solution was 2 mg/mL in 20 mM citrate, pH of 5.5, and 4.5% mannitol in water. Serum samples were collected prior to sacrifice on D5 and assayed for serum albumin concentration. After determination of gastrocnemius muscle wet weight, some gastrocnemius samples were lysed and determinations made of C-reactive protein (CRP, using Quantikine Rat CRP Immunoassay Kit) and total protein. A commercial immunoassay kit (Quantikine Rat VEGF Immunoassay, R & D Systems PN RRV00) was used to determine Vascular Endothelial Growth Factor (VEGF) concentration in plasma and ascites. Similarly, CRP concentration in plasma and ascites was determined using a commercial kit (Rat High-Sensitive CRP ELISA Method, Kamiya Biochemical PN KT099). In Experiment 3, one treatment group received 40 mg/kg (ip) roxithromycin, and a second treatment group received 40 mg/kg (po). Ascites volumes, plasma CRP and VEGF concentrations, and ascites CRP and VEGF concentrations were determined.

The test system of data set [2] is C-reactive protein (CRP). The data set is described as follows: C-reactive protein in gastrocnemius muscle lysate (Quantikine Rat CRP Immunoassay Kit), rat AH model. The data set is classed as in vivo, female Wistar rats. As to conditions: Experiment 2, 50 mg/kg ip. How it is done:
Following the method of Busquets et al., female Wistar rats were inoculated (Day 0) intraperitoneally (ip) with 2×10^7 cells/animal of Yoshida AH-130 ascites hepatoma (AH) cells. Control animals were inoculated with an equivalent amount of sterile saline solution. […] The roxithromycin dosing solution was 2 mg/mL in 20 mM citrate, pH of 5.5, and 4.5% mannitol in water. Serum samples were collected prior to sacrifice on D5 and assayed for serum albumin concentration. After determination of gastrocnemius muscle wet weight, some gastrocnemius samples were lysed and determinations made of C-reactive protein (CRP, using Quantikine Rat CRP Immunoassay Kit) and total protein. A commercial immunoassay kit (Quantikine Rat VEGF Immunoassay, R & D Systems PN RRV00) was used to determine Vascular Endothelial Growth Factor (VEGF) concentration in plasma and ascites. Similarly, CRP concentration in plasma and ascites was determined using a commercial kit (Rat High-Sensitive CRP ELISA Method, Kamiya Biochemical PN KT099). In Experiment 2, the single treatment group received 50 mg/kg roxithromycin (ip). Ascites volumes, serum albumin concentrations, and CRP levels in dissected gastrocnemius muscle were determined. AH cell counts and cell viability (%) were determined in recovered ascites fluid.

The conditions of data set [3]: macrolide given to rats prior to carrageenan stimulation; cited from earlier work.
Data set [4] has as its system Yoshida AH-130 ascites hepatoma (AH) cells. The data set is described as follows: AH cell count and viability in recovered ascites fluid, rat AH model. It is filed as in vivo, female Wistar rats. The method, then:
Following the method of Busquets et al., female Wistar rats were inoculated (Day 0) intraperitoneally (ip) with 2×10^7 cells/animal of Yoshida AH-130 ascites hepatoma (AH) cells. Control animals were inoculated with an equivalent amount of sterile saline solution. […] The roxithromycin dosing solution was 2 mg/mL in 20 mM citrate, pH of 5.5, and 4.5% mannitol in water.
For the cell count measurements in ascites, the cells were counted directly from the ascites collected at necropsy from N 4 animals in […]. A […] aliquot was taken from each sample and diluted 1:500 with trypan blue. The sample was then placed onto a hemacytometer and both sides counted to determine the total number of viable and non-viable AH cells.
In Experiment 2, the single treatment group received 50 mg/kg roxithromycin (ip). Ascites volumes, serum albumin concentrations, and CRP levels in dissected gastrocnemius muscle were determined. AH cell counts and cell viability (%) were determined in recovered ascites fluid.

For data set [5], the system named is C-reactive protein (CRP). The data set is described as follows: CRP concentration in plasma and ascites (Rat High-Sensitive CRP ELISA), rat AH model. It is filed as in vivo, female Wistar rats. As to conditions: Experiment 3; for Ascites [CRP] Mean: ascites fluid; for Ascites CRP ng/rat Mean: concentration times ascites volume; for Plasma [CRP] Mean: AH-inoculated. How it is done:
as §1
On the technique in general: In an ELISA, binding on a coated surface is turned into a signal by an enzyme label.

In data set [6] the test system is Yoshida AH-130 ascites hepatoma (AH) cells. The data set is described as follows: Ascites volume in rat AH (Yoshida AH-130 ascites hepatoma) model. It is filed as in vivo, female Wistar rats. The note with it: for Ascites (mL) Mean: AH-inoculated rats. How it is done: Following the method of Busquets et al., female Wistar rats were inoculated (Day 0) intraperitoneally (ip) with 2×10^7 cells/animal of Yoshida AH-130 ascites hepatoma (AH) cells. Control animals were inoculated with an equivalent amount of sterile saline solution. […] The roxithromycin dosing solution was 2 mg/mL in 20 mM citrate, pH of 5.5, and 4.5% mannitol in water. The animals were sacrificed on Day 5. Upon sacrifice ascites fluid was withdrawn by syringe and the volume determined. Three different experiments were performed. In each experiment one control group received an ascites hepatoma (AH) inoculation with vehicle treatment, and a second control group received saline inoculation with vehicle treatment. In Experiment 1, the single treatment group received 5 mg/kg roxithromycin (ip). Ascites volumes were determined. In Experiment 2, the single treatment group received 50 mg/kg roxithromycin (ip). Ascites volumes, serum albumin concentrations, and CRP levels in dissected gastrocnemius muscle were determined. AH cell counts and cell viability (%) were determined in recovered ascites fluid. In Experiment 3, one treatment group received 40 mg/kg (ip) roxithromycin, and a second treatment group received 40 mg/kg (po). Ascites volumes, plasma CRP and VEGF concentrations, and ascites CRP and VEGF concentrations were determined.

The subject of data set [7] is serum albumin. The data set is described as follows: Serum albumin concentration, rat AH model. It is filed as in vivo, female Wistar rats. The note with it: Experiment 2; 50 mg/kg ip. How it is done:
Following the method of Busquets et al., female Wistar rats were inoculated (Day 0) intraperitoneally (ip) with 2×10^7 cells/animal of Yoshida AH-130 ascites hepatoma (AH) cells. Control animals were inoculated with an equivalent amount of sterile saline solution. […] The roxithromycin dosing solution was 2 mg/mL in 20 mM citrate, pH of 5.5, and 4.5% mannitol in water. […] In Experiment 2, the single treatment group received 50 mg/kg roxithromycin (ip). Ascites volumes, serum albumin concentrations, and CRP levels in dissected gastrocnemius muscle were determined. AH cell counts and cell viability (%) were determined in recovered ascites fluid.

For data set [8], the system named is lung cancer. As to conditions: lung cancer patients; cited from earlier work.
[9] abbreviates: Experiment 2, ascites, AH-inoculated, 50 mg/kg ip, N = 4.

Consider `CC[C@H]1OC(=O)[C@H](C)[C@@H](O[C@H]2C[C@@](C)(OC)[C@@H](O)[C@H](C)O2)[C@H](C)[C@@H](O[C@@H]2O[C@H](C)C[C@H](N(C)C)[C@H]2O)[C@](C)(O)C[C@@H](C)/C(=N\OCOCCOC)[C@H](C)[C@@H](O)[C@]1(C)O` [roxithromycin], for which the “Ascites [VEGF] Mean” value is 4,590 pg/mL in data set [1] (40 mg/kg i.p. qd (Group 9)) and 4,040 pg/mL in data set [1] (40 mg/kg oral, bid (Group 10)). Further, the “Ascites VEGF pg/rat Mean” value in data set [1] (40 mg/kg i.p. qd (Group 9)) was 10,200 pg/rat; in data set [1] (40 mg/kg oral, bid (Group 10)), 9,900 pg/rat. Also, the “Plasma VEGF concentration” value in data set [1] (plasma, 40 mg/kg ip qd or oral bid) is listed as “below the immunoassay method quantitation limit”. The “Influence on VEGF levels” value in data set [1] (rat AH model) is recorded as “does not influence VEGF levels”. Besides, in data set [2], the “Muscle CRP levels versus AH-inoculated vehicle animals” value was “did significantly reduce”. The “Muscle CRP Mean” value in data set [2] (gastrocnemius muscle, AH-inoculated rats) is on record as 28.5 ng/mg total protein. Moreover, the “Exudate accumulation in rat paws” value in data set [3] is recorded as “limit exudate accumulation”. Besides, the “AH cell densities or cell counts versus vehicle control” value in data set [4] (Experiment 2, 50 mg/kg ip) is “did not reduce”. Further, the “Viable Cells % Mean” value in data set [4] (Experiment 2, ascites AH cells, trypan blue, 50 mg/kg ip, N = 4) came out at 99%. In addition, in data set [4] (setting [9]), the “Cells/mL × 10^6 Mean” value stood at 338 Cells/mL × 10^6. Moreover, the “Total Cells # × 10^6 Mean” value in data set [4] (setting [9]) was 2,077 × 10^6. In addition, the “Cytostatic or cytotoxic activity toward ascites hepatoma cells” value in data set [4] (rat AH model, conclusion from cell counts and viability) was “does not appear to be cytostatic or cytotoxic”. Also, the “Total CRP per rat in ascites versus vehicle control” value in data set [5] (40 mg/kg given either orally or intraperitoneally) is on record as “statistically significantly reduced”. The “Plasma CRP concentration versus vehicle-treated animals” value in data set [5] (40 mg/kg ip) is on record as “lowered plasma CRP concentration compared with the vehicle-treated animals, but the differences were not statistically significant”; in data set [5] (40 mg/kg oral) it was “very significantly lowered”. In addition, the “Ascites [CRP] Mean” value in data set [5] (40 mg/kg i.p. qd (Group 9)) amounted to 230 ng/mL; in data set [5] (40 mg/kg oral, bid (Group 10)), 287 ng/mL. Besides, the “Ascites CRP ng/rat Mean” value in data set [5] (40 mg/kg i.p. qd (Group 9)) came to 530 ng/rat; in data set [5] (40 mg/kg oral, bid (Group 10)) it was 730 ng/rat. The “Plasma [CRP] Mean” value was 709 µg/mL in data set [5] (40 mg/kg i.p. qd) and 593 µg/mL in data set [5] (40 mg/kg oral, bid). For the same molecule, the “Accumulated ascites fluid versus vehicle control” value in data set [6] (Experiment 1, 5 mg/kg (ip), difference not statistically significant) was “lowered the accumulated ascites fluid”. Also, the “Ascites (mL) Mean” value in data set [6] (Experiment 1, 5 mg/kg ip qd from Day 1, sacrifice Day 5) is 3.48** mL; in data set [6] (Experiment 2, 50 mg/kg ip qd, Day 5), 2.92 mL; in data set [6] (Experiment 3, 40 mg/kg i.p. qd, Day 5) it was 3.0 mL; in data set [6] (Experiment 3, 40 mg/kg oral, bid, Day 5), 3.7 mL. The “Accumulated ascites volume versus vehicle control” value in data set [6] (Experiment 2, 50 mg/kg ip) is “very significantly reduced”; in data set [6] (Experiment 3, 40 mg/kg given either po or ip) it was “very significantly reduced”. Moreover, the “Serum albumin levels versus AH-inoculated vehicle animals” value in data set [7] is recorded as “did not significantly change”.
On to `CC[C@H]1OC(=O)[C@H](C)[C@@H](O[C@H]2C[C@@](C)(OC)[C@@H](O)[C@H](C)O2)[C@H](C)[C@@H](O[C@@H]2O[C@H](C)C[C@H](N(C)C)[C@H]2O)[C@](C)(OC)C[C@@H](C)C(=O)[C@H](C)[C@@H](O)[C@]1(C)O` [clarithromycin], for which, in data set [8], the IL6 levels result was “reduced” and the Median survival time result is “significantly increased”.
